1 compound from patent US11725015B2, “Macrocyclic compound and uses thereof” (President and Fellows of Harvard College, priority 2017, dated 2023) can be followed below.

This test concerns CT26 subcutaneous syngeneic model. Nature of the test: Antitumor activity in CT26 subcutaneous syngeneic model in combination with anti-mPD-1 antibody in mice. It is filed as in vivo. The protocol:
A murine undifferentiated colon carcinoma cell line CT26, which had been cultured in an RPMI-1640 medium containing 10% FBS, and penicillin and streptomycin, was adjusted to a concentration of 2×10^7 cells/mL with Hank's Balanced Salt Solution to prepare a cell suspension. On day 1, the cell suspension was inoculated in a volume of 100 μL into a subcutaneous part of a right flank of BALB/c mice, 6 weeks of ages (BALB/cAnNCrlCrlj, female, Charles River Laboratories Japan, Inc.). Two days after the cell inoculation, the mice were randomly divided into four groups and each group consists of 8 mice. The shortest diameter and the longest diameter of a tumor in each mouse were measured by using an electronic digital caliper (Digimatic™ caliper, Mitutoyo Corporation), so as to calculate the volume of the tumor in accordance with the following calculation formula: Tumor volume (mm^3)=Longest diameter (mm)×Shortest diameter (mm)×Shortest diameter (mm)/2 T/C=(mean tumor volume of treated group)/(mean tumor volume of control group) Inhibition of tumor growth (%)=(1−T/C)×100
The test compound was intravenously administered at 0.09 mg/kg on days 3 and 11. Anti-mPD-1 antibody (BE0146, Bio X Cell) was intravenously administered at 10 mg/kg on days 3, 7, 11, and 15.

In the case of `C=C1C[C@@H]2CC[C@@]34C[C@H]5O[C@H]6[C@@H](O3)[C@H]3O[C@H](CC[C@@H]3O[C@H]6C5O4)CC(=O)O[C@@H]3[C@@H](C)[C@@H]4O[C@@H]5C[C@]6(C[C@@H]7O[C@]8(C[C@H](C)[C@@H]9O[C@H](CN)[C@H](O)C[C@@H]9O8)C[C@H](C)[C@@H]7O6)O[C@@H]5C[C@@H]4O[C@H]3C[C@H]3O[C@@H](CC[C@@H]1O2)C[C@@H](C)C3=C` [Compound (1)], the “Inhibition of tumor growth on day 15 (%)” value by setting is: (0.09 mg/kg intravenously + anti-mPD-1 antibody 10 mg/kg) 62%; (0.09 mg/kg intravenously on days 3 and 11, without antibody) 30%.
